Source: patent US11065253B2, “Arylquinazolines” (Merck Patent GmbH, priority 2013, dated 2021)
Like-named read-outs stand apart in the source and are kept apart here.

Test system: phospho-serine 2056 DNA-PK in HCT116 cells
Assay: DNA-PK phosphorylation at serine 2056 (cellular), ELISA in bleomycin-treated HCT116 cells
Type: cell-based
Conditions: read-out: IC50 pDNA-PK
Protocol: HCT116 cells were cultivated at 37° C. and 10% CO2 in MEM alpha medium with 10% of foetal calf serum and 2 mM glutamine. The cells were detached from the base of the culture vessels with the aid of trypsin/EDTA, centrifuged off in centrifuge tubes, taken up in fresh medium, and the cell density was determined. 100,000 cells were sown in 1 ml of culture medium per cavity of a 24-well cell culture plate and cultivated overnight. Next day, 10 μM bleomycin (DNA intercalator and inductor of DNA double-strand breaks) and test substances in fresh culture medium were added to the cells, and these were cultivated for a further six hours. […] The 96-well ELISA plates were subsequently treated with a detection antibody (Abcam ab79444: total DNA-PK) and a streptavidin-HRP conjugate. The development of the enzymatic reaction was carried out with the aid of a chemiluminescent reagent, the chemiluminescence was measured with the aid of a Mithras LB940. The signals with the phospho-DNA-PK-specific antibody were standardised to the signal with the antibody against the total protein DNA-PKc. […] The DMSO control was used as blank.

[1] = Homo sapiens, HCT-116, cellular DNA-PK phosphorylation at serine 2056, HCT116 cells
[2] = Homo sapiens, HCT-116, phospho-serine 2056 DNA-PK, bleomycin-treated HCT116 cells, class symbols A-D
[3] = cellular DNA-PK phosphorylation at serine 2056, HCT116 cells
[4] = Homo sapiens, HCT-116, phospho-serine 2056 DNA-PK, bleomycin-treated HCT116 cells
[5] = Homo sapiens, HCT-116, 6 h, cellular, HCT116 cells, 10 μM bleomycin, six hours
[6] = cellular, HCT116 cells, 10 μM bleomycin, six hours

Row | Structure (SMILES) | IC50 [1] [µM] | IC50 [2] [µM] | further results
1 | Cn1cnc2c(C(O)c3cc(-c4ncnc5cc(N6CCOCC6)ccc45)ccc3F)ncnc21 (centres unmarked) [Example 370, [2-Fluoro-5-(7-morpholin-4-yl-quinazolin-4-yl)-phenyl]-(9-methyl-9H-purin-6-yl)-methanol] | 0.5 to 5 |  | 
2 | CN(C)CCOc1ccc(C(O)c2ccc(F)c(-c3ncnc4cc(N5CCOCC5)ccc34)c2)nn1 (centres unmarked) [Example 133, [6-(2-Dimethyl-amino-ethoxy)-pyridazin-3-yl]-[4-fluoro-3-(7-morpholin-4-yl-quinazolin-4-yl)-phenyl]methanol] |  | 5 to 10 | 
3 | CC(O)(c1ccc(F)c(-c2ncnc3cc(N4CCOCC4)ccc23)c1)c1nccs1 (centres unmarked) [Example 163, 1-[4-Fluoro-3-(7-morpholin-4-yl-quinazolin-4-yl)-phenyl]-1-thiazol-2-ylethanol] |  | 10 to 30 | 
4 | OC(c1cc(-c2ncnc3cc(N4CCOCC4)ccc23)c(F)cc1Cl)c1nccn2ccnc12 (centres unmarked) [Example 397, [2-Chloro-4-fluoro-5-(7-morpholin-4-yl-quinazolin-4-yl)-phenyl]imidazo-[1,2-a]pyrazin-8-yl-methanol] |  |  | IC50 [3]: < 0.5 µM
5 | Cn1c(C(O)c2ccc(F)c(-c3ncnc4cc(N5CCOCC5)ccc34)c2)nccc1=O (centres unmarked) [Example 360, 2-([4-Fluoro-3-(7-morpholin-4-yl-quinazolin-4-yl)-phenyl]hydroxy-methyl}-3-methyl-3H-pyrimidin-4-one] |  |  | IC50 [4]: 0.5 to 5 µM
6 | COc1cc(C)c(C(O)c2cc(-c3ncnc4cc(N5CCOCC5)ccc34)c(F)cc2Cl)nn1 (centres unmarked) [Example 109, [2-Chloro-4-fluoro-5-(7-morpholin-4-yl-quinazolin-4-yl)-phenyl]-(6-methoxy-4-methylpyridazin-3-yl)methanol] |  | 5 to 10 | 
7 | N#Cc1ccc(C(O)c2cc(-c3ncnc4cc(N5CCOCC5)ccc34)c(F)cc2Cl)nn1 (centres unmarked) [Example 118, 6-{[2-Chloro-4-fluoro-5-(7-morpholin-4-yl-quinazolin-4-yl)-phenyl]hydroxy-methyl}pyridazine-3-carbonitrile] |  | 0.5 to 5 | 
8 | COc1nccnc1[C@@H](O)c1cc(-c2ncnc3cc(N4CCOCC4)ccc23)ccc1Cl [Example 411, (S)-[2-Chloro-5-(7-morpholin-4-yl-quinazolin-4-yl)-phenyl]-(3-methoxy-pyrazin-2-yl)-methanol (Ena 1)] |  |  | IC50 [3]: 0.5 to 5 µM
9 | OC(c1ccnnc1)c1cc(-c2ncnc3cc(N4CCOCC4)ccc23)c(F)cc1Cl (centres unmarked) [Example 36, [2-Chloro-4-fluoro-5-(7-morpholin-4-yl-quinazolin-4-yl)phenyl]-pyridazin-4-ylmethanol] |  |  | IC50 [5]: < 0.5 µM
10 | O=c1ccc(C(O)c2cc(-c3ncnc4cc(N5CCOCC5)ccc34)c(F)cc2Cl)n[nH]1 (centres unmarked) [Example 92, 3-[[2-Chloro-4-fluoro-5-(7-morpholino-quinazolin-4-yl)phenyl]-hydroxymethyl]-1H-pyridazin-6-one] |  |  | IC50 [5]: < 0.5 µM
11 | CNCc1csc(C(O)c2cc(-c3ncnc4cc(N5CCOCC5)ccc34)c(F)cc2Cl)n1 (centres unmarked) [Example 143, [2-Chloro-4-fluoro-5-(7-morpholin-4-yl-quinazolin-4-yl)-phenyl]-(4-methylamino-methyl-thiazol-2-yl)-methanol] |  | 5 to 10 | 
12 | COc1nccnc1C(O)c1ccc(F)c(-c2ncnc3cc(N4CCOCC4)ccc23)c1 (centres unmarked) [Example 38, [4-Fluoro-3-(7-morpholin-4-yl-quinazolin-4-yl)phenyl]-(3-methoxy-pyrazin-2-yl)methanol] |  |  | IC50 [6]: < 0.5 µM
13 | O=C(O)COc1ccc(C(O)c2cc(-c3ncnc4cc(N5CCOCC5)ccc34)c(F)cc2Cl)nn1 (centres unmarked) [Example 113, (6-{[2-Chloro-4-fluoro-5-(7-morpholin-4-yl-quinazolin-4-yl)-phenyl]hydroxy-methyl}pyridazin-3-yl-oxy)acetic acid] |  | 10 to 30 | 
14 | COc1ccc([C@@H](O)c2cc(-c3ncnc4cc(N5CCOCC5)ccc34)c(F)cc2Cl)nn1 [Example 136, (S)-[2-Chloro-4-fluoro-5-(7-morpholin-4-yl-quinazolin-4-yl)-phenyl]-(6-methoxy-pyridazin-3-yl)-methanol] |  | < 0.5 | 
15 | O=c1[nH]nc(C(O)c2ccc(F)c(-c3ncnc4cc(N5CCOCC5)ccc34)c2)c2ccsc12 (centres unmarked) [Example 338, 4-[[4-Fluoro-3-(7-morpholino-quinazolin-4-yl)-phenyl]hydroxy-methyl]-6H-thieno[2,3-d}-pyridazin-7-one] |  |  | IC50 [4]: 0.5 to 5 µM
16 | OC(c1cc(-c2ncnc3cc(N4CCOCC4)ccc23)c(F)cc1F)c1nccnc1OC(F)F (centres unmarked) [Example 450, (3-Difluoromethoxy-pyrazin-2-yl)-[2,4-difluoro-5-(7-morpholin-4-yl-quinazolin-4-yl)-phenyl]methanol] |  |  | IC50 [3]: 5 to 10 µM
17 | OC(c1ccc(F)c(-c2ncnc3cc(N4CCOCC4)sc23)c1)c1nccnc1Cl (single isomer, unassigned) [Example 24, (3-Chloro-pyrazin-2-yl)-[4-fluoro-3-(6-morpholin-4-yl-thieno-[3,2-d}pyrimidin-4-yl)-phenyl]methanol] |  |  | IC50 [6]: < 0.5 µM
18 | OCc1csc([C@@H](O)c2cc(-c3ncnc4cc(N5CCOCC5)ccc34)c(F)cc2Cl)n1 [Example 185, (S)-[2-Chloro-4-fluoro-5-(7-morpholin-4-yl-quinazolin-4-yl)-phenyl]-(4-hydroxymethyl-thiazol-2-yl)-methanol] |  | 0.5 to 5 | 
19 | NC(=O)C(c1cc(-c2ncnc3cc(N4CCOCC4)ccc23)c(F)cc1Cl)c1ncccc1Cl (centres unmarked) [Example 289, 2-[2-Chloro-4-fluoro-5-(7-morpholin-4-yl-quinazolin-4-yl)-phenyl]-2-(3-chloro-pyridin-2-yl)-acetamide] |  |  | IC50 [4]: 0.5 to 5 µM
20 | COc1ccc(C(C)(O)c2cc(-c3ncnc4cc(N5CCOCC5)ccc34)c(F)cc2Cl)nn1 (centres unmarked) [Example 125, 1-[2-Chloro-4-fluoro-5-(7-morpholin-4-yl-quinazolin-4-yl)-phenyl]-1-(6-methoxy-pyridazin-3-yl)-ethanol] |  | 10 to 30 | 
21 | CC(O)c1csc(C(O)c2cc(-c3ncnc4cc(N5CCOCC5)ccc34)c(F)cc2Cl)n1 (centres unmarked) [Example 201, 1-(2-{[2-Chloro-4-fluoro-5-(7-morpholin-4-yl-quinazolin-4-yl)-phenyl]hydroxy-methyl}thiazol-4-yl)-ethanol] |  | 0.5 to 5 | 
22 | OCCOc1ccc(C(O)c2cc(-c3ncnc4cc(N5CCOCC5)ccc34)c(F)cc2Cl)nn1 (centres unmarked) [Example 116, 2-(6-{[2-Chloro-4-fluoro-5-(7-morpholin-4-yl-quinazolin-4-yl)-phenyl]hydroxy-methyl}pyridazin-3-yl-oxy)ethanol] |  | 0.5 to 5 | 

Continued, in another order:

Row | IC50 [1] [µM] | IC50 [2] [µM] | Structure (SMILES) | further results
23 | 0.5 to 5 |  | Cc1cncnc1C(O)c1cc(-c2ncnc3cc(N4CCOCC4)ccc23)ccc1F (centres unmarked) [Example 392, [2-Fluoro-5-(7-morpholin-4-yl-quinazolin-4-yl)-phenyl]-(5-methyl-pyrimidin-4-yl)-methanol] | 
24 | < 0.5 |  | OC(c1ccc(F)c(-c2ncnc3cc(N4CCOCC4)ccc23)c1)c1nccnc1C(F)(F)F (centres unmarked) [Example 476, [4-Fluoro-3-(7-morpholin-4-yl-quinazolin-4-yl)-phenyl]-(3-trifluoro-methylpyrazin-2-yl)-methanol] | 
25 | 0.5 to 5 |  | Cn1ncc2c(C(O)c3cc(-c4ncnc5cc(N6CCOCC6)ccc45)c(F)cc3F)ncnc21 (centres unmarked) [Example 403, [2,4-Difluoro-5-(7-morpholin-4-yl-quinazolin-4-yl)-phenyl]-(1-methyl-1H-pyrazolo[3,4-d}-pyrimidin-4-yl)-methanol] | 
26 | < 0.5 |  | OC(c1ccc(F)c(-c2ncnc3cc(N4CCOCC4)ccc23)c1)c1ncnc2ccoc12 (centres unmarked) [Example 442, [4-Fluoro-3-(7-morpholin-4-yl-quinazolin-4-yl)-phenyl]furo[3,2-d}-pyrimidin-4-yl-methanol] | 
27 | 0.5 to 5 |  | OC(c1cc(-c2ncnc3cc(N4CCOCC4)ccc23)ccc1Cl)c1ncnc2occc12 (centres unmarked) [Example 416, [2-Chloro-5-(7-morpholin-4-yl-quinazolin-4-yl)-phenyl]furo[2,3-d}-pyrimidin-4-yl-methanol] | 
28 | 0.5 to 5 |  | COc1cncnc1C(O)c1cc(-c2ncnc3cc(N4CCOCC4)ccc23)ccc1Cl (centres unmarked) [Example 408, [2-Chloro-5-(7-morpholin-4-yl-quinazolin-4-yl)-phenyl]-(5-methoxy-pyrimidin-4-yl)-methanol (Ena 2)] | 
29 | < 0.5 |  | OC(c1ccc(F)c(-c2ncnc3cc(N4CCOCC4)ccc23)c1)c1ncnc2ccsc12 (centres unmarked) [Example 438, [4-Fluoro-3-(7-morpholin-4-yl-quinazolin-4-yl)-phenyl]thieno[3,2-d}-pyrimidin-4-yl-methanol] | 
30 | < 0.5 |  | Cc1nccnc1C(O)c1cc(-c2ncnc3cc(N4CCOCC4)ccc23)c(F)cc1Cl (centres unmarked) [Example 457, [2-Chloro-4-fluoro-5-(7-morpholin-4-yl-quinazolin-4-yl)-phenyl]-(3-methyl-pyrazin-2-yl)-methanol] | 
31 | 0.5 to 5 |  | CCn1c(C(O)c2ccc(F)c(-c3ncnc4cc(N5CCOCC5)ccc34)c2)cccc1=O (centres unmarked) [Example 398, 1-Ethyl-6-{[4-fluoro-3-(7-morpholin-4-yl-quinazolin-4-yl)-phenyl]hydroxy-methyl}-1H-pyridin-2-one] | 
32 | 0.5 to 5 |  | Cc1cncnc1C(O)c1cc(-c2ncnc3cc(N4CCOCC4)ccc23)ccc1Cl (centres unmarked) [Example 417, [2-Chloro-5-(7-morpholin-4-yl-quinazolin-4-yl)-phenyl]-(5-methyl-pyrimidin-4-yl)-methanol (Ena 2)] | 
